Paper PMC9750798, “A metabotropic glutamate receptor affects the growth and development of Schistosoma japonicum” (Frontiers in Microbiology, 2022)

Molecular target: T1, SjGRM7 (Schistosoma japonicum, UniProt A0A4Z2D6G5)
T1 construct: gene EWB00_004136; S. mansoni homologue is Smp_128940
T1 sequence (A0A4Z2D6G5 24-1036): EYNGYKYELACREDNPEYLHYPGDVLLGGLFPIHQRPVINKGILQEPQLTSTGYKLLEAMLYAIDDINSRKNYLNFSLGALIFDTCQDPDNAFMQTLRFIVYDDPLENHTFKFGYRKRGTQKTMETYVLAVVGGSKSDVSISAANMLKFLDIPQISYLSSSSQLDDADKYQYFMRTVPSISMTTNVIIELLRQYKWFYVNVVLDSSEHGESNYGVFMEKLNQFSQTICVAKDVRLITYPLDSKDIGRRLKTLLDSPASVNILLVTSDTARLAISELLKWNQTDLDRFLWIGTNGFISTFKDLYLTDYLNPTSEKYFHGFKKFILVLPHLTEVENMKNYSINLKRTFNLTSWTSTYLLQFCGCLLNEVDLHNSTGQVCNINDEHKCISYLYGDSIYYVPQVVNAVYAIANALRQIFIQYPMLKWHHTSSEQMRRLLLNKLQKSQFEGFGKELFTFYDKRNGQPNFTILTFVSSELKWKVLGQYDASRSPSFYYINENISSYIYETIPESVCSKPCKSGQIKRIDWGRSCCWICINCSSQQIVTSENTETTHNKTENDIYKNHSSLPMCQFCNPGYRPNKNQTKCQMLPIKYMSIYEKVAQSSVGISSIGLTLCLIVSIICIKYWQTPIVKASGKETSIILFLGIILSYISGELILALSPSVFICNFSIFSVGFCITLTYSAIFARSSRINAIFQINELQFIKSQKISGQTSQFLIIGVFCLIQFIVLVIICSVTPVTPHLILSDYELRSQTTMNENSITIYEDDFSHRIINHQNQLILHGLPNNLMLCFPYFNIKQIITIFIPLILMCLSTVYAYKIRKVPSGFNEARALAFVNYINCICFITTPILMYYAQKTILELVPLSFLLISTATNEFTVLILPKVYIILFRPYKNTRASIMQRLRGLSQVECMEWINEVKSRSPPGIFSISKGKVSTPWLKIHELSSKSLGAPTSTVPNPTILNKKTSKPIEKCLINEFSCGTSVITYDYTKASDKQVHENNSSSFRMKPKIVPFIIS
Assay: Fluo-4 calcium mobilization in transfected HEK293T cells
Format: cell-based
Conditions: agonist; co-expressed G-alpha16; dose series

N[C@@H](CCC(=O)O)C(=O)O [L-glutamate]
Fluo-4 calcium mobilization in transfected HEK293T cells: SjGRM and SjGRM7 responded only to L-glutamate
